Test results as given in ChEMBL document CHEMBL1955740, “Structure-based virtual screening approach to the discovery of p38 MAP kinase inhibitors” (Bioorg Med Chem Lett, 2012).

How the values were obtained:
[1] = biological target: T1, Mitogen-activated protein kinase 14 (Homo sapiens, UniProt Q16539); experiment: Inhibition of MAPK p38alpha
[2] = biological target: T1, Mitogen-activated protein kinase 14; experiment: Inhibition of MAPK p38alpha assessed as activity remaining at 50 uM relative to control

T1 sequence (Q16539 whole entry): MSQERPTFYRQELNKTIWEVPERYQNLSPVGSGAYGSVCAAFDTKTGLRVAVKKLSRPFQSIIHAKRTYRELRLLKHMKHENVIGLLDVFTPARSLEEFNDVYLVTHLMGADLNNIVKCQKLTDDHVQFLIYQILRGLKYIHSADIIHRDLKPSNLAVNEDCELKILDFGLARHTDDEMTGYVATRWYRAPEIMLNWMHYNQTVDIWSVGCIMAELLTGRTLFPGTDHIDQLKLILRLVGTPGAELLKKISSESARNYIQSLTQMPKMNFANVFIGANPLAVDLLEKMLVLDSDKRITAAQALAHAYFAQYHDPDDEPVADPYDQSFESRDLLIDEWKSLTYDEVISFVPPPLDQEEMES

SMILES	IC50 [1] [µM]	Activity [2] [%]
Nc1nc(Nc2ccccc2)sc1C(=O)c1ccccc1	0.72	8.1
NC(=O)c1ccc(Nc2nnc(-c3ccc(O)cc3)c3ccccc23)cc1	> 30	41
Cc1cccc(-c2nc(Nc3ccc(C(=O)O)cc3)c3ccccc3n2)c1	20.4	34
CCn1cc(/C=C2/Oc3c(ccc(O)c3CN3CCOCC3)C2=O)c2ccccc21	> 30	37
O=C1c2ccccc2C(=O)N1CCc1nc2c3c(-c4ccco4)c(-c4ccco4)oc3ncn2n1	> 30	39
Cn1cc(/C=C2/C(=O)NC(=O)N(CCc3ccccc3)C2=O)c2ccccc21	17.1	32
